What was measured:
Assay in all cases: biochemical
Set-up in all cases: KINOMEscan active-site-directed competition binding panel, 468 kinases, percent of DMSO control at 1 uM
Details in all cases: KINOMEscan binding, percent of DMSO control; read-out: Ctrl%
AKT3 = AKT3 (Homo sapiens, UniProt Q9Y243)
CAMK1G = CAMK1G (Homo sapiens, UniProt Q96NX5)
CDC2L1 = target: T1, CDC2L1 (Homo sapiens, UniProt P21127)
T1 construct: gene CDK11B

CDK3 = CDK3 (Homo sapiens, UniProt Q00526)
CDKL3 = CDKL3 (Homo sapiens, UniProt Q8IVW4)
CSNK1E = CSNK1E (Homo sapiens, UniProt P49674)
DCAMKL1 = target: T2, DCAMKL1 (Homo sapiens, UniProt O15075)
T2 construct: gene DCLK1

DRAK1 = target: T3, DRAK1 (Homo sapiens, UniProt Q9UEE5)
T3 construct: gene STK17A

DYRK1A = DYRK1A (Homo sapiens, UniProt Q13627)
FLT3-autoinhibited = FLT3-autoinhibited (Homo sapiens, UniProt P36888)
GSK3B = GSK3B (Homo sapiens, UniProt P49841)
IRAK1 = IRAK1 (Homo sapiens, UniProt P51617)
[1] = target: T4, JAK1(JH1domain-catalytic) (Homo sapiens, UniProt P23458)
T4 construct: JH1domain-catalytic

MAP3K3 = MAP3K3 (Homo sapiens, UniProt Q99759)
MAST1 = MAST1 (Homo sapiens, UniProt Q9Y2H9)
NEK9 = NEK9 (Homo sapiens, UniProt Q8TD19)
PIK3CB = PIK3CB (Homo sapiens, UniProt P42338)
RET = RET (Homo sapiens, UniProt P07949)
ROCK2 = ROCK2 (Homo sapiens, UniProt O75116)
[2] = target: T5, RSK1(Kin.Dom.2-C-terminal) (Homo sapiens, UniProt Q15418)
T5 construct: gene RPS6KA1; Kin.Dom.2-C-terminal

STK16 = STK16 (Homo sapiens, UniProt O75716)
STK36 = STK36 (Homo sapiens, UniProt Q9NRP7)
TRPM6 = TRPM6 (Homo sapiens, UniProt Q9BX84)
YANK2 = target: T6, YANK2 (Homo sapiens, UniProt Q9NY57)
T6 construct: gene STK32B
T6 sequence (Q9NY57 whole entry): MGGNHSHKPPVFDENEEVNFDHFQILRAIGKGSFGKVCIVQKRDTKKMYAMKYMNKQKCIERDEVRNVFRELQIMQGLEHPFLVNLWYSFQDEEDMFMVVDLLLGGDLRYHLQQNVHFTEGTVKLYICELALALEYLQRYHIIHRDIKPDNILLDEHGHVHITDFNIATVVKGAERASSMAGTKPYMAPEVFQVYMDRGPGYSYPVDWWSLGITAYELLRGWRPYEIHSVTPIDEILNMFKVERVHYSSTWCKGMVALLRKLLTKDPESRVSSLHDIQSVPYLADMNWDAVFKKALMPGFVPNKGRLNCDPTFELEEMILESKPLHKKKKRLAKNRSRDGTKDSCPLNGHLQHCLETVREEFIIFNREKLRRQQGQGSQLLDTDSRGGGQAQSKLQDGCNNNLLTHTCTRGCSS

T4 sequence (P23458 whole entry): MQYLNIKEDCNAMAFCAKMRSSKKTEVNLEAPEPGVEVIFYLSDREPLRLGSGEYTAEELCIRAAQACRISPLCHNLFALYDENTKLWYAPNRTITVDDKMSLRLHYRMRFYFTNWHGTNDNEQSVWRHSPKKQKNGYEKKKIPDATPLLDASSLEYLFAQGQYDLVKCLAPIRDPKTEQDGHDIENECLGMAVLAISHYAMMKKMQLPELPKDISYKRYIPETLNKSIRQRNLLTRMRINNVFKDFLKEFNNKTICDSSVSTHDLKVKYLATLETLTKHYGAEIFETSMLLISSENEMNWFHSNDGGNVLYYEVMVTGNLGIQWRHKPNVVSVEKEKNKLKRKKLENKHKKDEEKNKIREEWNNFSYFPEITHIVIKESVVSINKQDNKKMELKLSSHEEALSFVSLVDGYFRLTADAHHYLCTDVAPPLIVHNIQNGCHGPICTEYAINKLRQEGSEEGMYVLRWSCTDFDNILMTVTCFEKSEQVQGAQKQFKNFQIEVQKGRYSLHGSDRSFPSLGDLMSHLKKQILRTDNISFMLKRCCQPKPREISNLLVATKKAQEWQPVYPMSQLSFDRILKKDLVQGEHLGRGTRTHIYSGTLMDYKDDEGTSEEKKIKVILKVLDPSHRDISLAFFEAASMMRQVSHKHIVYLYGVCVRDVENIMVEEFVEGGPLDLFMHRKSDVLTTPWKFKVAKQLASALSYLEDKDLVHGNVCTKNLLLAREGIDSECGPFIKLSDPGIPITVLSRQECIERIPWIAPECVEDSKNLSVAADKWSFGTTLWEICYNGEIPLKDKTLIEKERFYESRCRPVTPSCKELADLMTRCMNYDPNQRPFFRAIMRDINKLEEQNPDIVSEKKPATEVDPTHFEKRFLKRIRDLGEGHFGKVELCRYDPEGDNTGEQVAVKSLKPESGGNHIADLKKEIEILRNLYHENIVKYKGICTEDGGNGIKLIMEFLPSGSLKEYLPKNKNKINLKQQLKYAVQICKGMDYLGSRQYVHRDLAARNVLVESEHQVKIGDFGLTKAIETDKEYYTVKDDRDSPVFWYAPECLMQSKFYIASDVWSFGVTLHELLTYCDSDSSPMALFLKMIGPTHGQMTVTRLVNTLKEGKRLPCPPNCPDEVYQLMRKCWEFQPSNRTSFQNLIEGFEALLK
T3 sequence (Q9UEE5 whole entry): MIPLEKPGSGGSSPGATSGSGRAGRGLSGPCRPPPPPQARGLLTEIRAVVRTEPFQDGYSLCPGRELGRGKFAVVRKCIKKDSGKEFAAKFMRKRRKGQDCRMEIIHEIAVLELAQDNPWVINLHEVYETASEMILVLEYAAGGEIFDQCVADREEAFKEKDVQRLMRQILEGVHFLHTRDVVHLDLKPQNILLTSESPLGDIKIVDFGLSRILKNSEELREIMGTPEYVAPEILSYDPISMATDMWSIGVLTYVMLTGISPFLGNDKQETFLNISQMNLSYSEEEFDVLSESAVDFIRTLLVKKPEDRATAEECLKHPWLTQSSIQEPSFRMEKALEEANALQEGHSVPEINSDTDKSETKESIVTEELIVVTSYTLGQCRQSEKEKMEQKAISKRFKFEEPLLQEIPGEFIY
Chain of STK16 (O75716 whole entry): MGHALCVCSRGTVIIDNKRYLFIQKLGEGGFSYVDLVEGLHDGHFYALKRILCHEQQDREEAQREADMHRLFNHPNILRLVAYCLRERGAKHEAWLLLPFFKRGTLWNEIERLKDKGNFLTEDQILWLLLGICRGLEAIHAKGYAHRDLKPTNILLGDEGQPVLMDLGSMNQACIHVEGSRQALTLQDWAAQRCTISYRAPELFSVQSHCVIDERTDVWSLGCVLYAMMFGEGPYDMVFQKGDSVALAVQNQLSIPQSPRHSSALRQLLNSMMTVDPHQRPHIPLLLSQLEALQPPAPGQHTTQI
Chain of TRPM6 (Q9BX84 whole entry): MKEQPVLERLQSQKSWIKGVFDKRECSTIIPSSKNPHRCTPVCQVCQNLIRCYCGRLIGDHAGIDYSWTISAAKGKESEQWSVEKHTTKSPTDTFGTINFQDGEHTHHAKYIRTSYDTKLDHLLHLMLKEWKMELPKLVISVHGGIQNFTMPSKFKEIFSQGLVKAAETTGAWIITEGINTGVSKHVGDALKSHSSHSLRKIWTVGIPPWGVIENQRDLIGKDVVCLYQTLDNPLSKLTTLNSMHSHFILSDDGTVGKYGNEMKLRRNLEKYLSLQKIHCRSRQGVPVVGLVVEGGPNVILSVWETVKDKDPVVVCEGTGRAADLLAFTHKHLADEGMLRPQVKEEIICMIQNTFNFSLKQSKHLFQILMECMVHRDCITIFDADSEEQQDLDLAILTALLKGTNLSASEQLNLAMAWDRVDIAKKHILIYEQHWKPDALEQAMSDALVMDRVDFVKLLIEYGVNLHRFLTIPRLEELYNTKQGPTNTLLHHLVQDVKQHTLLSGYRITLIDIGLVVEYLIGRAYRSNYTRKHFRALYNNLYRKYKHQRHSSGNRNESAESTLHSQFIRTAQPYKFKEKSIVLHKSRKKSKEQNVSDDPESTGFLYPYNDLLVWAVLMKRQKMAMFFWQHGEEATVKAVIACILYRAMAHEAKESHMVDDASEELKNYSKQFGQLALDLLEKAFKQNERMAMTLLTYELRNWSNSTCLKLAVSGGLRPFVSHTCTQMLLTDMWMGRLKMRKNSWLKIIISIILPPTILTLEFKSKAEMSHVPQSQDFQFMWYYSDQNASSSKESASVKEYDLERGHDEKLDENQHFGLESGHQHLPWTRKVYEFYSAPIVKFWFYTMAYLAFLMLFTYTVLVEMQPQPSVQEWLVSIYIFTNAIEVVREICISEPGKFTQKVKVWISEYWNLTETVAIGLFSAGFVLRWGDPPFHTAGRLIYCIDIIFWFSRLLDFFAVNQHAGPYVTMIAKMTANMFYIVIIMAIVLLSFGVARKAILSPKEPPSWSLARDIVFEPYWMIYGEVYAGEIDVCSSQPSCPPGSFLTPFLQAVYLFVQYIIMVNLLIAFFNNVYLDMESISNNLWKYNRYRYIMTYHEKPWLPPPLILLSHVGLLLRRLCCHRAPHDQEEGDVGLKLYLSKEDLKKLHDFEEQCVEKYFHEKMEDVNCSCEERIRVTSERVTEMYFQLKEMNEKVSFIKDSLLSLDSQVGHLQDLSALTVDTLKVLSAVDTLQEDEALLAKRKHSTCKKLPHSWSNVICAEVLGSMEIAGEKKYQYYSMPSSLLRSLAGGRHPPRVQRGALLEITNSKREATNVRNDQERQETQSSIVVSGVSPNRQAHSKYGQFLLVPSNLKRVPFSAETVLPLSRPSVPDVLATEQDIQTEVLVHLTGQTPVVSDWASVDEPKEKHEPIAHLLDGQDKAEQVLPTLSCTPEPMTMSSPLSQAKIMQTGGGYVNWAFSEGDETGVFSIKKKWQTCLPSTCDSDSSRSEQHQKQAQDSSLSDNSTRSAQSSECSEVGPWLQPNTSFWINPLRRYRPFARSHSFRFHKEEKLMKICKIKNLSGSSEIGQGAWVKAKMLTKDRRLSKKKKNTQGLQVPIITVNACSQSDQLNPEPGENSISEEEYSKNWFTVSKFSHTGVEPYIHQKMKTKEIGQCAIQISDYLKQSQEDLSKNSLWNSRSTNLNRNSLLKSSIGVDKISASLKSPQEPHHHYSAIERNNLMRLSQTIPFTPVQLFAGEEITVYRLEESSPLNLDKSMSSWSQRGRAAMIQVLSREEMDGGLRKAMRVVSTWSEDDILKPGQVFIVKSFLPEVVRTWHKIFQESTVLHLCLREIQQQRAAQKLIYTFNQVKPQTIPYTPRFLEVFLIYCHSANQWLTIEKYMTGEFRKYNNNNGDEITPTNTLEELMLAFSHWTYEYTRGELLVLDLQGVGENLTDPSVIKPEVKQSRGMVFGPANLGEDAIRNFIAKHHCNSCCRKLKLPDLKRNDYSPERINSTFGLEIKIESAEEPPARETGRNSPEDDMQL
T2 sequence (O15075 whole entry): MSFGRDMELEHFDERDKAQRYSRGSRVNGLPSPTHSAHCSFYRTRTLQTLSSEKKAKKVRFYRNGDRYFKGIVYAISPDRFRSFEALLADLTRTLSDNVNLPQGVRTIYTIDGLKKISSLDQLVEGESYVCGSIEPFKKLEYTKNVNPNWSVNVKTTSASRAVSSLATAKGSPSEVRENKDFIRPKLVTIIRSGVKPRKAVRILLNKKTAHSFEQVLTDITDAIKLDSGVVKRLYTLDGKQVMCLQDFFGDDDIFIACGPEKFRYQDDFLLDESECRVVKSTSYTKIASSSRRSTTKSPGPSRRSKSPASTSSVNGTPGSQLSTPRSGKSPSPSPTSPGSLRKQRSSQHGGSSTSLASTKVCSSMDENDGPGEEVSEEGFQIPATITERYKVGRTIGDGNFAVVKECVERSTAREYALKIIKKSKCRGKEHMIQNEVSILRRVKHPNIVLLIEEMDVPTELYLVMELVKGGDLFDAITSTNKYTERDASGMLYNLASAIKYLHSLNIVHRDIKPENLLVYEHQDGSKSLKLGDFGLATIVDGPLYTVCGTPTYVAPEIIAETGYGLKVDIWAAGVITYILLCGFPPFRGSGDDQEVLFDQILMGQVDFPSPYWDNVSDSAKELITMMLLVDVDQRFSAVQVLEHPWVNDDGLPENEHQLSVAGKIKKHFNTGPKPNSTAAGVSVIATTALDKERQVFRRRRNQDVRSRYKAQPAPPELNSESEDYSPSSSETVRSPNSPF

## Cc1ccc(NC(=O)c2cccc(C(F)(F)F)c2)cc1Nc1cc(-c2cccnc2)nc2[nH]ccc12 [HZX-02-059]
AKT3
  remaining binding at 1 µM: 69%
CAMK1G
  remaining binding at 1 µM: 100%
CDC2L1
  remaining binding at 1 µM: 75%
CDK3
  remaining binding at 1 µM: 100%
CDKL3
  remaining binding at 1 µM: 84%
CSNK1E
  remaining binding at 1 µM: 97%
DCAMKL1
  remaining binding at 1 µM: 93%
DRAK1
  remaining binding at 1 µM: 83%
DYRK1A
  remaining binding at 1 µM: 85%
FLT3-autoinhibited
  remaining binding at 1 µM: 98%
GSK3B
  remaining binding at 1 µM: 83%
IRAK1
  remaining binding at 1 µM: 100%
[1]
  remaining binding at 1 µM: 100%
MAP3K3
  remaining binding at 1 µM: 89%
MAST1
  remaining binding at 1 µM: 100%
NEK9
  remaining binding at 1 µM: 71%
PIK3CB
  remaining binding at 1 µM: 74%
RET
  remaining binding at 1 µM: 90%
ROCK2
  remaining binding at 1 µM: 100%
[2]
  remaining binding at 1 µM: 100%
STK16
  remaining binding at 1 µM: 96%
STK36
  remaining binding at 1 µM: 89%
TRPM6
  remaining binding at 1 µM: 50%
YANK2
  remaining binding at 1 µM: 100%
